In patent US20140309300A1, “Bicyclic Labdane Diterpenes for Use in the Treatment of TRPC6 Associated Diseases” (UNIVERSITAET LEIPZIG, priority 2011, published 2014):

Columns and labels:
TRPC6 [1] = molecular target: T1, TRPC6 (Homo sapiens, UniProt Q9Y210); test: Calcium influx (fluo-4 [Ca2+]i) in TRPC6-expressing HEK293 cells; format: cell-based; conditions: 0.01 to 20 μM; activated with 50 μM OAG or GPCR agonist mix; FIG. 1
T1 construct: expressed in transfected cells
T1 sequence (Q9Y210 1-931): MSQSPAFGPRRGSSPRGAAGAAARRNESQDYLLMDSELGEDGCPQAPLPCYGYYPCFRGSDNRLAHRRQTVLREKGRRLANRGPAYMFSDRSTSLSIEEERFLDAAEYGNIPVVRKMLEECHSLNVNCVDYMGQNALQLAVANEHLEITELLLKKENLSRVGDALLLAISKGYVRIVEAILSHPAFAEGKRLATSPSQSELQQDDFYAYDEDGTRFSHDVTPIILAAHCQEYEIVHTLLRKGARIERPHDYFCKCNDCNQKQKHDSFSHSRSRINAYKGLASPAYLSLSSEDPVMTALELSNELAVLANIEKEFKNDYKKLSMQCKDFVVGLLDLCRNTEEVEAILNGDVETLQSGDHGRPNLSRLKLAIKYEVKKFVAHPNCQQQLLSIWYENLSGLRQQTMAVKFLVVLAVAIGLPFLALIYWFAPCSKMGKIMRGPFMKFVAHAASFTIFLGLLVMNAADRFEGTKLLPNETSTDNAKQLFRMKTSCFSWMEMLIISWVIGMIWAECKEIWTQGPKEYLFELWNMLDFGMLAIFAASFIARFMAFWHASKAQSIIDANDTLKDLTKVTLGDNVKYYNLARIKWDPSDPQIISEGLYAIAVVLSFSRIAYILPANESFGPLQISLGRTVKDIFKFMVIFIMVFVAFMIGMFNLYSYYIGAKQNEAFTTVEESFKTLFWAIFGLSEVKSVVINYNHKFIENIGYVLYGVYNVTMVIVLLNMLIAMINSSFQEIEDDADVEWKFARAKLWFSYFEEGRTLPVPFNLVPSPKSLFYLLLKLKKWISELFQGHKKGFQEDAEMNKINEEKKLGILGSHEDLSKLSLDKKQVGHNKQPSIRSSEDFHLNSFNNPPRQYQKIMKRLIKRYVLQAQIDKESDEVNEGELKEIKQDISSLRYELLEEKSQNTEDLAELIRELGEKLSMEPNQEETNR
Protocol: (§1) HEK293 (ATCC CRL-1573) cells were grown in Earle's Minimum Essential Medium (MEM) supplemented with 10 Vol.-% fetal calf serum, 2 mM (mmol/l) L-glutamine, 100 units/ml penicillin and 0.1 mg/ml streptomycin. Cells were seeded in 35-mm culture dishes, grown for 24 h, and transfected at 80% confluence with 2 μg of plasmid DNA encoding a C-terminally YFP-tagged human TRPC6 and 4 μl of Fugene HD reagent (Roche) in 100 μl serum-free medium. To select stably transfected HEKhTRPC6-YFP clones, 1 mg/ml geneticin (G418) was added to the medium. […] To verify functional expression, different clones were isolated and tested by single-cell [Ca^2+]i imaging experiments. […]
(§2) To assess the effect of bicyclic labdane diterpenes on calcium transport via TRP channels, larixol and larixol acetate was added to cell lines from example 1. Blocking of the respective TRP channel was determined by determining increases in [Ca^2+]i in suspensions. To activate the TRP channels, an activator of the respective channel was added, and changes in fluorescence intensity of intracellularly loaded fluo-4 was determined with a multiwell plate reader device (Polarstar Omega, BMG Labtech). For HEKrTRPV1 cells, assessment of activation was performed by monitoring the intracellular acidification, which results in fluorescence loss of co-expressed YFP. […]

human TRPM2 = molecular target: T2, human TRPM2 (Homo sapiens, UniProt O94759); test: Specificity test, calcium influx in hTRPM2 HEK293 cells; format: cell-based; conditions: activator 1 mM H2O2; FIG. 1
T2 construct: expressed in transfected cells; host or cells: HEK293 (line hTRPM2)
Protocol: as §1, §2

human TRPM3 = molecular target: T3, human TRPM3 (Homo sapiens, UniProt Q9HCF6); test: Specificity test, calcium influx in hTRPM3 HEK293 cells; format: cell-based; conditions: FIG. 1
T3 construct: expressed in transfected cells; host or cells: HEK293 (line hTRPM3)
T3 sequence (Q9HCF6 whole entry): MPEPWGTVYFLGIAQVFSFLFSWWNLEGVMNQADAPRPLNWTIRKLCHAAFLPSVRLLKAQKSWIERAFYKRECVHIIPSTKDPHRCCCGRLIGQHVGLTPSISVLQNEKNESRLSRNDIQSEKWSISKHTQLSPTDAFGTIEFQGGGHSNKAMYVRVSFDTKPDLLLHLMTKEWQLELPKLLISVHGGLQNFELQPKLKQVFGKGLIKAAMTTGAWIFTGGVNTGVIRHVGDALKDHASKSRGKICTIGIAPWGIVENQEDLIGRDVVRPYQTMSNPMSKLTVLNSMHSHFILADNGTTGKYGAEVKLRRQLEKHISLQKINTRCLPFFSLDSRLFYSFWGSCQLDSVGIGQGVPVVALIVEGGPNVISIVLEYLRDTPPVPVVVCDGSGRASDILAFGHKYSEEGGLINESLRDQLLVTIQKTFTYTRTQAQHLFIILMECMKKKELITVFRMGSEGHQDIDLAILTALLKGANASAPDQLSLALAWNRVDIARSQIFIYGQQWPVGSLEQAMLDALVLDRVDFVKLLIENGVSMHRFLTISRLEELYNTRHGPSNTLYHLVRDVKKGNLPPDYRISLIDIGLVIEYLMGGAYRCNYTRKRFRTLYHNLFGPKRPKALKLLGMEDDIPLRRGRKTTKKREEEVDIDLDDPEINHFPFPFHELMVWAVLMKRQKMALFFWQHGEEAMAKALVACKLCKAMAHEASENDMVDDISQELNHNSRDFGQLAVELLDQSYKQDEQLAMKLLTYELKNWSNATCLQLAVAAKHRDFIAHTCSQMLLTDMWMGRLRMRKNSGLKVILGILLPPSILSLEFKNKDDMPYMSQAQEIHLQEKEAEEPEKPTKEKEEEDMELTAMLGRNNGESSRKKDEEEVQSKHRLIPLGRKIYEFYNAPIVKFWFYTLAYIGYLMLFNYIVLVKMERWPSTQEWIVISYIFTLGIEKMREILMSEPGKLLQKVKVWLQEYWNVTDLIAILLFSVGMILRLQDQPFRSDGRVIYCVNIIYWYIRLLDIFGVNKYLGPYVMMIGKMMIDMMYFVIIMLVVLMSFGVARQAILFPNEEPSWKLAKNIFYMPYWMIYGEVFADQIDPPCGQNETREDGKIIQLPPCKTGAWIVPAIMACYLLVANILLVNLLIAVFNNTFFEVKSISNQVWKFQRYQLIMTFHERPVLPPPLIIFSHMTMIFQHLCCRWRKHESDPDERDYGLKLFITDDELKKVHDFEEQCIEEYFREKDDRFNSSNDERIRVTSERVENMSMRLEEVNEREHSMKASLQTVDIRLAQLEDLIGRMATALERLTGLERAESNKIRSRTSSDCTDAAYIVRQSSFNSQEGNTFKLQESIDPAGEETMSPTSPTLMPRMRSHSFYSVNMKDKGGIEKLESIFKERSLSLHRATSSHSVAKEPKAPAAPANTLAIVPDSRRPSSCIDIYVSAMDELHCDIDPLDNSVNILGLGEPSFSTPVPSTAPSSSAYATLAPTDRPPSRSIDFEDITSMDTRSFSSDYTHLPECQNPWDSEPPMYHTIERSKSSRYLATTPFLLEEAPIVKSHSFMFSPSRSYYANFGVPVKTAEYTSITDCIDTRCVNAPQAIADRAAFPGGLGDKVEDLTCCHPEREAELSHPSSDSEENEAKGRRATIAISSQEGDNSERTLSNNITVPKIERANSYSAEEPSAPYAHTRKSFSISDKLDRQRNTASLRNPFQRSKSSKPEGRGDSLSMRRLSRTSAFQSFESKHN
Protocol: as §1, §2

human TRPM8 = molecular target: T4, human TRPM8 (Homo sapiens, UniProt Q7Z2W7); test: Specificity test, calcium influx in hTRPM8 HEK293 cells; format: cell-based; conditions: FIG. 1
T4 construct: expressed in transfected cells; host or cells: HEK293 (line hTRPM8)
T4 sequence (Q7Z2W7 whole entry): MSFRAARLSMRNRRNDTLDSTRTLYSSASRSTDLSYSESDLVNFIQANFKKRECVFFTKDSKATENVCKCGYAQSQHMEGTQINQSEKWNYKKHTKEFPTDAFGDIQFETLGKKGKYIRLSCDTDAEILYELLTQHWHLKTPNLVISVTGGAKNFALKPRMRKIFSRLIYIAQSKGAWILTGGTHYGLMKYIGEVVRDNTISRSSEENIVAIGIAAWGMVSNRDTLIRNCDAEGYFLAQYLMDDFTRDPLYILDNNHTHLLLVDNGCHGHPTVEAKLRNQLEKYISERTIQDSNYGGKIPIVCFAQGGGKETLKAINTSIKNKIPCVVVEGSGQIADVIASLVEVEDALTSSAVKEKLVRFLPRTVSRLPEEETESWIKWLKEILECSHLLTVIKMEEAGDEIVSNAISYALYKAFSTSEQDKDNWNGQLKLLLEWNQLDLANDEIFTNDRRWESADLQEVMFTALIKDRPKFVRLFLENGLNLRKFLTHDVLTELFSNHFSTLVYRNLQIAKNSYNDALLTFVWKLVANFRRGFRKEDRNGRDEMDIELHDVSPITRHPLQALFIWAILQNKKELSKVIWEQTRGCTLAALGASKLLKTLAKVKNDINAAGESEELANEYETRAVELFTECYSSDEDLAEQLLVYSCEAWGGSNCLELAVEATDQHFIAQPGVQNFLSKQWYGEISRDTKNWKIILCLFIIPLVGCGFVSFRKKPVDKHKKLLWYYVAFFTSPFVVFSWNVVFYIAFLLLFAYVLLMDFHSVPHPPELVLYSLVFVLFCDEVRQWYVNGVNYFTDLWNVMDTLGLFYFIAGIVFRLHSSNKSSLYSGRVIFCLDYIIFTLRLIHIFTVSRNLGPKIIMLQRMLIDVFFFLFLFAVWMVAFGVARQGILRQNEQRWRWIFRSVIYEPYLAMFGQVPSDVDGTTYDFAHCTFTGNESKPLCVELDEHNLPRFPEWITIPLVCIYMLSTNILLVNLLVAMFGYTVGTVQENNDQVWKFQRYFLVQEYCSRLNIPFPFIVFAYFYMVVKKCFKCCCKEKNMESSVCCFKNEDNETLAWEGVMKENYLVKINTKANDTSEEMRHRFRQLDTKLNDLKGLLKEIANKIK
Protocol: as §1, §2

other TRP channels = test: Specificity tests in cell lines overexpressing other TRP channels; format: cell-based; conditions: FIG. 1
Protocol: as §1, §2

rat TRPV1 = molecular target: T5, rat TRPV1 (Rattus norvegicus, UniProt O35433); test: Specificity test in HEKrTRPV1 cells (intracellular acidification, YFP fluorescence loss); format: cell-based; conditions: activator 2 μM capsaicin; FIG. 1
T5 construct: expressed in transfected cells; host or cells: HEK293 (line rTRPV1)
T5 sequence (O35433 whole entry): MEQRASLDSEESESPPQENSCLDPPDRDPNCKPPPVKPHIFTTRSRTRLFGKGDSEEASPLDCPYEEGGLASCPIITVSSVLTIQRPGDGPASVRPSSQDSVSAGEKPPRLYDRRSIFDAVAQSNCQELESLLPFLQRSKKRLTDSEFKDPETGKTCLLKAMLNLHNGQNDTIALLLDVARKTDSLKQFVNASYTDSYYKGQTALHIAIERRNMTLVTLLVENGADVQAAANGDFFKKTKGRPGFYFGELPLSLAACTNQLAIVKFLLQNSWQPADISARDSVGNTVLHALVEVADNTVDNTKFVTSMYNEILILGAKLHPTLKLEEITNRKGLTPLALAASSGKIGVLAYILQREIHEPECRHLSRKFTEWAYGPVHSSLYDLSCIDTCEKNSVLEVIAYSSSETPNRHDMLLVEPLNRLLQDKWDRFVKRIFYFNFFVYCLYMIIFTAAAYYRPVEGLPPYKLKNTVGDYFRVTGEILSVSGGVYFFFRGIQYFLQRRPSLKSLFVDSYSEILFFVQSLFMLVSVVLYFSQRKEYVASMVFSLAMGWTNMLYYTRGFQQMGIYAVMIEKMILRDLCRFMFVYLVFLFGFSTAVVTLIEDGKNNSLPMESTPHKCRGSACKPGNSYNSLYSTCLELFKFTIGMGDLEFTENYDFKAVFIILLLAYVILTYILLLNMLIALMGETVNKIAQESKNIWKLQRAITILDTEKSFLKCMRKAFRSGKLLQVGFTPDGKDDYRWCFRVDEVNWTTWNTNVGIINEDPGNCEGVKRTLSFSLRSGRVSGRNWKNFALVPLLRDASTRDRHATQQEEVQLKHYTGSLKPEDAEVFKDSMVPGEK
Protocol: as §1, §2

TRPC6 [2] = molecular target: T1, TRPC6; test: Electrophysiological whole-cell recordings of TRPC6-mediated current; format: cell-based
Protocol: FIG. 2 Larixol acetate acts from the outside of the cells. A: Electrophysiological whole-cell recordings were performed to determine the TRPC6-mediated current upon direct stimulation with 50 μM OAG or by activating heterotrimeric G-proteins with intracellularly applied AlF4 (50 μM), to trigger phospholipase C activation, resulting in the formation of endogenous diacylglycerols. To expose the cytosolic side of the channel protein to larixol acetate, larixol acetate was added to the intracellular solution (hatched bars and filled bars). Control solutions without larixol acetate (open bars) were measured in parallel.
TRPC6-expressing cells were seeded on glass coverslips, mounted onto the stage of an inverted microscope, and contacted with a borosilicate glass pipet filled with an intracellular solution. After reaching a gigaohm seal, the whole-cell configuration was obtained by gently applying a negative pressure at the pipet. Whole-cell currents were measured in the voltage clamped mode with a holding potential of −60 mV, and normalized for the cell size by dividing current amplitudes by the cellular capacitance (pA/pF). TRPC6 was activated either by adding OAG to the bath solution or by including 50 μM AlF4^− in the pipet solution.
In some experiments, the pipet solution was additionally supplemented with 1 μM larixol acetate to apply the modulator intracellularly (FIG. 2A, “inside”).

lung edema formation = test: Ischemia-reperfusion-associated lung edema formation, rabbit lung transplantation model; format: in vivo; conditions: 5 μM in Perfadex and Tyrode solutions, explanted rabbit lungs
Protocol: FIG. 5 Inhibition of ischemia-reperfusion-associated lung edema formation by larixol acetate. Rabbit lungs were explanted and extracorporally perfused with Perfadex solution and ventilated under oxygenized conditions (open symbols) or under hypoxic conditions (filled symbols). Lungs were then placed on ice for 2 h, and reperfused for 90 min with tyrode solution. Upper panel: control experiments without larixol acetate, lower panel: similar experiments, but with Perfadex® and tyrode solutions that were supplemented with 5 μM larixol acetate. Increases in the lung wet weight indicate edema formation. Data represent means and S.E.M. (Standard error of the mean) of 6 individual experiments for each treatment group.
To assess whether larixol acetate mediated TRPC6 block can prevent endothelial dysfunction, the effect of larixol acetate was tested on lung edema formation in a rabbit lung transplantation model.
New Zealand white rabbits were anesthetized and subjected to tracheostomy. Animals were mechanically ventilated with room air (40 breaths min^−1) The thorax was opened by midline sternotomy, pulmonary arteries and the left atrium were cannulated, the heart-lung-block was excised and transferred to a thermostatted artificial thorax chamber. […] The wet weight of the lungs was recorded during the whole procedure. […]

HEK293 cells = test: Propidium iodide exclusion cytotoxicity assay; format: cell-based, human; conditions: concentrations up to 10 μM, 24 h incubation
Protocol: FIG. 3 Larixol and larixol acetate to not show a cytotoxic effect on HEK293 cells. The cellular integrity was determined by exclusion of the DNA-binding fluorescent dye propidium iodide (PI).
To assess possible cytotoxic effects of the larixol and larixol acetate, a propidium iodide exclusion assay was performed. Cells were grown in 24 well plates for 18 h and then incubated with the indicated compounds for another 24 h (FIG. 3). Propidium iodide (2 μg/ml, Invitrogen) was added, and the fluorescence (excitation at 544 nm and detection at 620 nm) was followed. To obtain a maximum reference value, 0.2% Triton X-100 was added to some samples prior to propidium iodide injection. The following controls were tested: • negative controls: HBS buffer (“control”), or 0.1% DMSO in HBS buffer, added to the growth medium in the same volume as for 10 μM larixol (“0.1% DMSO”). • positive controls: 2 μm staurosporine, 50 μm digitonin

[3] = tested on: hypoxia-induced pulmonary vasoconstriction (HPV); test: Hypoxia-induced pulmonary vasoconstriction (HPV) in isolated perfused mouse lungs; format: in vivo; conditions: 5 μM in perfusion solution; isolated perfused C57BL/6 mouse lungs; 1% O2
Protocol: FIG. 4 Inhibition of hypoxia-induced pulmonary vasoconstriction (HPV) by larixol acetate.
To assess whether the TRPC6 blocking action of larixol acetate is potent to prevent HPV, larixol acetate was supplied in an induced mouse model of HPV.
Anesthetized, male adult C57BL/6 mice were subjected to tracheostomy, followed by volume-controlled normoxic ventilation. Midsternal thoracotomy was performed, and two cannulas (1 mm inner diameter) were inserted into the pulmonary artery and left atrium, respectively. Lungs were then perfused at a constant flow at 37° C. with a Hanks' Balanced Salt Solution (Sigma-Aldrich) containing 5% bovine serum albumin (Sigma-Aldrich) and 5% dextran (Sigma-Aldrich) at pH of 7.4. Indomethacin (30 μM) and N^G-nitro-L-arginine methylester (1 mM) were added to the perfusate to inhibit endogenous prostaglandin and nitric oxide synthesis.

Row | Compound | inhibition of calcium influx via TRPC6 (TRPC6 [1]) | effect on TRPM2 (human TRPM2) | effect on TRPM3 (human TRPM3) | effect on TRPM8 (human TRPM8) | inhibition of other TRP channels (other TRP channels) | effect on TRPV1 (rat TRPV1) | suppression of OAG- or AlF4-induced TRPC6 activation, intracellular exposure (inside, pipet solution) (TRPC6 [2]; 1 μM in pipet solution) | block of TRPC6 whole-cell current, blocker applied via the bath solution (outside) (TRPC6 [2]; 1 μM, OAG or AlF4- activation, holding potential -60 mV) | increase in lung wet weight (edema formation) under hypoxic treatment (lung edema formation) | cytotoxic effect (propidium iodide exclusion) (HEK293 cells) | hypoxia-induced increase in pulmonary artery pressure (PAP) [3]
1 | C=C[C@@](C)(O)CC[C@H]1C(=C)C[C@H](O)[C@H]2C(C)(C)CCC[C@]12C [larixol] | selectively inhibit calcium influx via TRPC6 | not affected | not affected | not affected | not, or only poorly, inhibited | not affected |  |  |  |  | 
2 | larixol acetate | selectively inhibit calcium influx via TRPC6 | not affected | not affected | not affected | not, or only poorly, inhibited | not affected | not sufficient to suppress | efficient block | prevented the increase in lung wet weight | no cytotoxic effect | completely abrogated
